Results reported in publication PMC11876601 (Molecular Systems Biology, 2025).
“And” between values parts separate entries of the source, which are not always exact repeats. Equal entries are not always repeated. Where two headings read alike, the source gives them in different places.

What was measured:
[1] = test system: p-sites in DNA-damaged AsPC-1 cells; test: decryptM dose-resolved phosphoproteomics of ATRi in GEM-pre-treated cells; assay type: cell-based, human
Experimental: Cell culture medium was replaced 24 h after seeding. […] For time point 0, AsPC-1 cells were treated with a vehicle and lysed immediately. The final DMSO concentration in all experiments was 0.2%.
Briefly, cells were washed twice with PBS and lysed in SDS lysis buffer (2% SDS in 40 mM Tris-HCl, pH 7.6), followed by sonication for 10 min (30 s on/30 s off) using a Bioruptor (Diagenode). For DNA hydrolysis, samples were boiled at 95 °C for 10 min and incubated with 2% trifluoroacetic acid (TFA) for 1 min, before the reaction was quenched using 4% N-methylmorpholine. Lysate was cleared by centrifugation at 11,000 × g for 5 min and protein concentration was determined using the Pierce BCA Protein Assay Kit (Thermo Scientific).
Using 70% ethanol, samples were then precipitated on beads, followed by washing thrice with 80% ethanol and once with 100% acetonitrile. Subsequently, proteins were reduced and alkylated using 10 mM TCEP, 50 mM chloroacetamide, and 2 mM CaCl2 in 100 mM EPPS/NaOH, pH 8.5 for 1 h at 37 °C, followed by tryptic digestion at 37 °C for 16 h. Peptides were acidified with 1% TFA and desalted on Chromabond HLB plates (30 µm particle size, 10 mg capacity, Machery-Nagel), using 0.1% TFA for equilibration and sample loading, and 0.1% TFA in 70% acetonitrile for peptide elution. Recovered peptides were freeze-dried by vacuum-centrifugation and stored at −20 °C.
Depending on the experiment, samples were either labeled with TMT-11plex (decryptM), TMT-10plex (non-decryptM, quadruplicates), or TMTpro reagent (time-series; all Thermo Scientific). Therefore, dried peptides were reconstituted in 15 µl 100 mM EPPS, pH 8.5 and each treatment condition was labeled with one channel of the respective TMT reagent (5 µl of 25 µg/µl reagent, Appendix Tables S4–S6). The reaction was incubated for 1 h at 23 °C and subsequently quenched with 0.4% hydroxylamine. Then, samples were pooled, acidified with 1% formic acid, and freeze-dried by vacuum-centrifugation. Labeled peptide pools were desalted on C18 Sep-Pak cartridges (37–55 µm particle size, 50 mg capacity, Waters), using 0.1% formic acid as equilibration solvent, and 0.1% formic acid in 60% acetonitrile was used as elution solvent. Eluted peptides were freeze-dried and stored at −20 °C until further use.
Basic reversed-phase (bRP) fractionation of peptides was performed on a Vanquish HPLC (Thermo Scientific). In short, dried peptides were reconstituted in 200 µl 25 mM ammonium bicarbonate, pH 8.0 and directly injected onto a Waters BEH130 XBridge C18 column (3.5 µm, 4.6 × 250 mm). […] Using an automated fraction collector, 96 fractions were collected between min 7 and 55 after injection. Fractions were acidified with 1% formic acid and pooled to 48 fractions, before they were freeze-dried and stored at −20 °C.
Immobilized metal ion affinity chromatography (IMAC) enrichment of phosphorylated peptides was performed on the Bravo automated liquid handling platform using AssayMAP Fe(III)-NTA cartridges (Agilent). In brief, the 48 dried peptide fractions were reconstituted in 0.1% TFA in 80% acetonitrile and further pooled to 12 fractions (200 µl final volume per well). The phosphopeptide enrichment protocol embedded in the Agilent AssayMAP Bravo Protein Sample Prep Workbench v2.0 software was run. Thereby, the cartridges were first primed with 150 μl 0.1% TFA in acetonitrile at 300 μl/min, and equilibrated with 150 μl 0.1% TFA in 80% acetonitrile at 10 μl/min. Then, pooled fractions were loaded at 5 µl/min and further washed three times with 150 μl 0.1% TFA in 80% acetonitrile at 50 μl/min. Enriched peptides were eluted with 60 μl 1% ammonium hydroxide at 5 μl/min.

[2] = test system: PANC-1 cells; test: Cell proliferation assay, GEM + ATR inhibitor (Incucyte confluence, 72 h); settings: for EC50: Homo sapiens, experiment GEM (GEM alone, in the series of the ATRi named in column Drug); for Response: ATRi 0 nM (GEM), R1-R3;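 as to EC50: in combination experiments GEM is titrated while ATRi is held at a fixed sub-EC50 dose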;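 as to all read-outs here: PANC-1 confluence at 72 h taken as raw values, not normalized to starting confluence, with each experiment run in triplicate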
Experimental: Cells were seeded at 5000 cells/well into 96-well flat bottom plates (Eppendorf) and allowed to attach overnight. […] Cells were incubated for 72 h at 37 °C and 5% CO2. Cell confluence readouts at 72 h were either normalized to their initial confluence using the Incucyte software (AsPC-1) or used without prior normalization (all others). […] Each experiment was performed in triplicates, the data was plotted as mean ± standard deviation (s.d.).

[3] = PANC-1, experiment GEM (GEM alone), plateau of fitted curve, ratio drug/vehicle confluence

C[C@@H]1COCCN1c1cc(-c2ccnn2C)c2ccnc(-c3ccn[nH]3)c2n1 [Elimusertib]
Log2 PTM response (GEM+ATRi vs. GEM) [1]: -0.6
Log2 PTM response (GEM+ATRi vs. GEM) ([1]; BRCA1-pS1239): -1.6
Log2 PTM response (GEM+ATRi vs. GEM) ([1]; BRD8-pS621): -1.4
Log2 PTM response (GEM+ATRi vs. GEM) ([1]; CDKN2AIP-pS198): -1.1
Log2 PTM response (GEM+ATRi vs. GEM) ([1]; CHEK1-pS317): -1.9
Log2 PTM response (GEM+ATRi vs. GEM) ([1]; CHEK1-pS468): -3
Log2 PTM response (GEM+ATRi vs. GEM) ([1]; DHX9-pS321): -1.6
Log2 PTM response (GEM+ATRi vs. GEM) ([1]; EXO1-pS714): -1
Log2 PTM response (GEM+ATRi vs. GEM) ([1]; FANCD2-pS319): -1.9
Log2 PTM response (GEM+ATRi vs. GEM) ([1]; HDGF-pS103): -1.1
Log2 PTM response (GEM+ATRi vs. GEM) ([1]; HMGA1-pS9): -1.4
Log2 PTM response (GEM+ATRi vs. GEM) ([1]; HMGA1-pS36;S44): -1
Log2 PTM response (GEM+ATRi vs. GEM) ([1]; HMGA1-pS44): -1.5
Log2 PTM response (GEM+ATRi vs. GEM) ([1]; HSPA4-pS552): -0.7
Log2 PTM response (GEM+ATRi vs. GEM) ([1]; HTATSF1-pS481): -0.8
EC50 ([1]; Homo sapiens, ASPC1, read-out: EC50, RALY S176): 12.8 nM
Log2 PTM response (GEM+ATRi vs. GEM) ([1]; LRRC42-pS385): -2.3
Log2 PTM response (GEM+ATRi vs. GEM) ([1]; NBN-pS397): -0.9
Log2 PTM response (GEM+ATRi vs. GEM) ([1]; NBN-pS615): -0.8
Log2 PTM response (GEM+ATRi vs. GEM) ([1]; PELP1-pS1033): -1
Log2 PTM response (GEM+ATRi vs. GEM) ([1]; PNISR-pS706): -1.9
Log2 PTM response (GEM+ATRi vs. GEM) ([1]; PPP6R3-pS825): -0.5
Log2 PTM response (GEM+ATRi vs. GEM) ([1]; PSMD4-pS266): -0.9
Log2 PTM response (GEM+ATRi vs. GEM) ([1]; RAD18-pS368): -2.1
Log2 PTM response (GEM+ATRi vs. GEM) ([1]; RIF1-pS1873): -0.6
Log2 PTM response (GEM+ATRi vs. GEM) ([1]; SNRPA-pS115): -1.1
Log2 PTM response (GEM+ATRi vs. GEM) ([1]; TCEA1-pS100;S97): -2
Log2 PTM response (GEM+ATRi vs. GEM) ([1]; TCEB3-pS251): -0.7
Log2 PTM response (GEM+ATRi vs. GEM) ([1]; THAP4-pS186): -1.1
Log2 PTM response (GEM+ATRi vs. GEM) ([1]; TOPBP1-pS1504): -1.2
Log2 PTM response (GEM+ATRi vs. GEM) ([1]; TSEN34-pS136): -0.8
Log2 PTM response (GEM+ATRi vs. GEM) ([1]; UHRF1-pS393): -0.7
Log2 PTM response (GEM+ATRi vs. GEM) ([1]; UIMC1-pS171): -1.7
Log2 PTM response (GEM+ATRi vs. GEM) ([1]; ZC3H14-pS135): -1.6
ATRi Regulation (Curve), RALY S176 ([1]; classified by CurveCurator): down
PTM response (norm. to 1 µM GEM) ([1]; source data 4B (p-site not named), 1 µM GEM + ATRi 10 nM): 0.81
PTM response (norm. to 1 µM GEM) ([1]; source data 4B (p-site not named), 1 µM GEM + ATRi 300 nM): 0.28
PTM response (norm. to 1 µM GEM) ([1]; source data 4B (p-site not named), 1 µM GEM + ATRi 1000 nM): 0.29
PTM response (norm. to 1 µM GEM) ([1]; source data 4B (p-site not named), 1 µM GEM + ATRi 3000 nM): 0.30
PTM response (norm. to 1 µM GEM) ([1]; source data 4B (p-site not named), 1 µM GEM + ATRi 10000 nM): 0.27
PTM response (norm. to 1 µM GEM) ([1]; source data 5B (p-site not named), 1 µM GEM + ATRi 3 nM): 0.67
PTM response (norm. to 1 µM GEM) ([1]; source data 5B (p-site not named), 1 µM GEM + ATRi 30 nM): 0.17

Nc1ccn([C@@H]2O[C@H](CO)[C@@H](O)C2(F)F)c(=O)n1 [GEM, Gemcitabine]
EC50 ([2]; PANC-1, PANC-1, replicates R1-R3): 5.84e-08 M
EC50 ([2]; PANC-1, read-out: pEC50, PANC-1 (converted), -log10 of EC50 [M]): 5.89e-08 M
Response ([2]; PANC-1, GEM 1 nM): 55.73 and 93.02 and 87.94
Response ([2]; PANC-1, GEM 3 nM): 54.62 and 89.30 and 88.72
Response ([2]; PANC-1, GEM 10 nM): 65.10 and 93.01 and 80.93
Response ([2]; PANC-1, GEM 30 nM): 43.73 and 76.60 and 68.58
Response ([2]; PANC-1, GEM 300 nM): 45.56 and 60.97 and 63.22
Response ([2]; PANC-1, GEM 1000 nM): 38.26 and 66.03 and 59.27
Response ([2]; PANC-1, GEM 3000 nM): 35.94 and 56.55 and 61.30
Curve bottom [2, 3]: 1.02 and 1.05 and 1.06 and 0.91 and 1.00 and 0.98
Curve top [2, 3]: 0.74
